Data on one compound can be found in US20240408052A1, “COMPOSITION CONTAINING SESAMIN AND ERGOTHIONEINE OR SALT THEREOF” (SUNTORY HOLDINGS LIMITED, priority 2021, published 2024).

Molecules are shown by their SMILES.

This test relates to p16-INK4A (p16). As to the kind of experiment: p16 expression in H2O2-treated TIG-3 cells (cellular senescence marker, real-time PCR). In kind it is cell-based, human. Here is the method: TIG-3 cells (human lung fibroblasts) were used to measure the expression level of p16-INK4A (p16) in the cells. Eagle's minimum essential medium supplemented with 10% fetal bovine serum was used in each of Examples 1 and 2, Reference Example 1, and Comparative Examples 1 to 4. A H2O2 (200 μM)-supplemented medium used for H2O2 treatment was prepared by adding H2O2 to the medium described above. The H2O2 (200 μM)-supplemented medium is free of sesamin-class compounds and ergothioneine.
In Examples 1 and 2, in order to investigate the action on cellular senescence, the cells were cultured in a medium containing sesamin-class compounds and ergothioneine and were then treated with the H2O2-supplemented medium. […]
Specifically, TIG-3 cells at 4.0×10^4 cells/well were seeded onto 6-well plates and cultured at 37° C. with CO2 (5%) for 24 hours in a medium supplemented with a sesamin-episesamin mixture (SE) and ergothioneine at the respective concentrations shown in the following Table 1. […] The resulting pellets were dissolved in 20 μL DNase RNase free water (Invitrogen) and measured by NanoDrop. […] A master mix (15 μL) (Takara, TB Green® Premix Ex Taq™ II (Tli RNaseH Plus)) was mixed with the cDNA sample (5 μL), and p16 was measured with a Real-Time PCR system (Applied Biosystems, StepOnePlus-01). An average p16 expression level (n=6) was determined. […]

Turning to `C[N+](C)(C)[C@@H](Cc1c[nH]c(=S)[nH]1)C(=O)[O-]` [ergothioneine, L-ergothioneine], the “p16 expression level compared to the H2O2-treated group (Comparative Example 1)” value (FIG. 1, ergothioneine 0.1 μM, 200 μM H2O2 two hours, then six days culture, n=6) was “no significant change”. In addition, the “p16 expression compared to the H2O2-treated group (Comparative Example 1)” value (FIG. 2, ergothioneine 10 μM, 200 μM H2O2, p<0.05) is “significantly suppressed”.
